Assay results from US12559506B2, “Indazole based compounds and associated methods of use” (Arvinas Operations, Inc., priority 2021, dated 2026).

Biological target: T1, LRRK2 (endogenous, HiBit tagged) (Homo sapiens, UniProt Q5S007)
T1 construct: endogenous in cells; host or cells: HEK293 cells with HiBit knock-in at the endogenous LRRK2 locus, stably expressing firefly luciferase
Assay: Endogenous LRRK2 degradation assay, endogenous gene C-terminally HiBit-tagged in HEK293 cells (Nano-Glo Dual Luciferase)
Format: cell-based
Conditions: endogenous HiBit-tagged LRRK2 in HEK293 cells, 24 hours treatment; for Dmax: read-out: **Endogenous WT Dmax (%); for DC50: read-out: *Endogenous WT DC50
In short: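 LRRK2-HiBit quantified via Nano-Glo Dual Luciferase in HEK293 knock-in cells co-expressing firefly luciferase, after 24 h exposure to compound (1 μM final top, 1:3, 11 points). Values normalised to DMSO median per plate and curve-fitted; Alamar Blue viability run alongside.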

T1 sequence (Q5S007 whole entry): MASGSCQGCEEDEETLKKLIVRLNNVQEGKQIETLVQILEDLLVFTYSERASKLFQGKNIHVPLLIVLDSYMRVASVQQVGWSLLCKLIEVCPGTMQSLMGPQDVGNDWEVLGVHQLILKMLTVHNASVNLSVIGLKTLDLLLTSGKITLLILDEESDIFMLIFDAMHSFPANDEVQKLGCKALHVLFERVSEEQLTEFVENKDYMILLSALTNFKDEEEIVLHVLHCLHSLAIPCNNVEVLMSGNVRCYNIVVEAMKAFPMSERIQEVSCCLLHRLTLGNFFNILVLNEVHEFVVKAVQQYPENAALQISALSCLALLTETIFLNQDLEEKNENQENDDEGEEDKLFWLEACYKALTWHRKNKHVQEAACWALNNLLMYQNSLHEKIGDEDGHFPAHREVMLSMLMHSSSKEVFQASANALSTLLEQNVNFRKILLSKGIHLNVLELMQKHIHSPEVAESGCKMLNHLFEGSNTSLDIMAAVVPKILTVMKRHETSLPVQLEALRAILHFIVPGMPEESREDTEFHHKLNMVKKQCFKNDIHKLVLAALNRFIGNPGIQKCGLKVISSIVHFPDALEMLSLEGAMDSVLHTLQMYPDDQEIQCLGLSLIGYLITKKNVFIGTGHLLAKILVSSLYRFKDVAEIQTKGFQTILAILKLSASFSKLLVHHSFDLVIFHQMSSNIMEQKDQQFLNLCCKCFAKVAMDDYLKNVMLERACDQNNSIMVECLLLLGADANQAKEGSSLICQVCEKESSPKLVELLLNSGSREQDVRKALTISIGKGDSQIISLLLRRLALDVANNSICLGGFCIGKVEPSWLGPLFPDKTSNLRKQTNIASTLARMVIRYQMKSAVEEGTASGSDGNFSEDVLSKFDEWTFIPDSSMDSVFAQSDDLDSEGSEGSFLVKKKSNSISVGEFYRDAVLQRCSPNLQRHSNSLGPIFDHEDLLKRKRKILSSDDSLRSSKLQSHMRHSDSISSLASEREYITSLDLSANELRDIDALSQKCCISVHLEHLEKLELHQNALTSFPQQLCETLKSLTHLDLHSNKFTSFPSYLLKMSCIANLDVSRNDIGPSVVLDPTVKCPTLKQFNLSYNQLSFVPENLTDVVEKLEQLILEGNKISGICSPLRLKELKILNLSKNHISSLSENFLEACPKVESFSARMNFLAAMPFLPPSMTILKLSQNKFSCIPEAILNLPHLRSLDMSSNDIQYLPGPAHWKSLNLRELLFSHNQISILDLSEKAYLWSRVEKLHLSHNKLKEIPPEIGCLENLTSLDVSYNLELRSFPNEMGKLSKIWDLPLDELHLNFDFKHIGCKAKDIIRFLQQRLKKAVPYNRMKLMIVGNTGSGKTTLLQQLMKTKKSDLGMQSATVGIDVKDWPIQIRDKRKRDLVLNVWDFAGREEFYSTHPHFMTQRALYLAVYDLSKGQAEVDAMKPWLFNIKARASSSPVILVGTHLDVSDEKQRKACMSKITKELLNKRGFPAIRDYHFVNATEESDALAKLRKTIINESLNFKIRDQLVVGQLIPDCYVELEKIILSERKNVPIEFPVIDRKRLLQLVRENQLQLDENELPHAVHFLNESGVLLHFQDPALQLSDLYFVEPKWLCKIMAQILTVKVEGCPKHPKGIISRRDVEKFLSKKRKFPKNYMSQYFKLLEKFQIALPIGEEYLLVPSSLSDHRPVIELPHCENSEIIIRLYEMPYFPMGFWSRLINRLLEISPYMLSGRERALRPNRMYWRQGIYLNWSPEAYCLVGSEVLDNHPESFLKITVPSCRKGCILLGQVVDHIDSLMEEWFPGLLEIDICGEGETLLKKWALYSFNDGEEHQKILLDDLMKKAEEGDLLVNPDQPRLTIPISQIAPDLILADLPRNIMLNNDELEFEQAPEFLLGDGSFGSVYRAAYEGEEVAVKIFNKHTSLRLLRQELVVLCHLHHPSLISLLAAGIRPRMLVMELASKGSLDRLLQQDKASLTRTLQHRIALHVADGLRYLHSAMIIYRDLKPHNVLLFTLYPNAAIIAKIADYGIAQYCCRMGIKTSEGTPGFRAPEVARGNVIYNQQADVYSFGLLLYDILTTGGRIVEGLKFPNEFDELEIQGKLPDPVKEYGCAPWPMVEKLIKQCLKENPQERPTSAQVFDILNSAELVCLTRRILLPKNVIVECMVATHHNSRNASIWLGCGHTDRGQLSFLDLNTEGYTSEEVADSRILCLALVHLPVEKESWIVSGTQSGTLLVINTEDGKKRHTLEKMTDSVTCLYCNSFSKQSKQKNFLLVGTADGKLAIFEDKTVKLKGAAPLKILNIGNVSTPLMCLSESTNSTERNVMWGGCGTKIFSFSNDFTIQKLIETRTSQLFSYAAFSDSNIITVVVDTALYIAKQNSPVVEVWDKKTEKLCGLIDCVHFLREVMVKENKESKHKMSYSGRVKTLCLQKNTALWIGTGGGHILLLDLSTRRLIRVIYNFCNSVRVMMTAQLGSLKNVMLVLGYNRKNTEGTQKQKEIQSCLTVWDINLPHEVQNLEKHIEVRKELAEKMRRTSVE

Dmax | DC50 | SMILES
≥ 70% | < 10 nM | COc1c(N2CCC(CN3CCN(CC4CCN(c5cc(-c6n[nH]c7cnc(OC8(C)CC8)cc67)ncn5)CC4)C[C@H]3C)CC2)ccc2c1CN(C1CCC(=O)NC1=O)C2=O (stereo partly drawn) [Compound 283, 3-[4-methoxy-5-(4-{[(2R)-2-methyl-4-[(1-{6-[5-(1-methylcyclopropoxy)-1H-pyrazolo[3,4-c]pyridin-3-yl]pyrimidin-4-yl}piperidin-4-yl)methyl]piperazin-1-yl]methyl}piperidin-1-yl)-1-oxo-2,3-dihydro-1H-isoindol-2-yl]piperidine-2,6-dione]
50 to 70% | < 10 nM | C[C@@H]1CN(CC2CCN(c3ccc4c(c3F)CN(C3CCC(=O)NC3=O)C4=O)CC2)C[C@H](C)N1CC1CCN(c2cc(-c3n[nH]c4ccc(OC5(C)CC5)cc34)ncn2)CC1 (stereo partly drawn) [Compound 284, 3-[5-(4-{[(3R,5S)-3,5-dimethyl-4-[(1-{6-[5-(1-methylcyclopropoxy)-1H-indazol-3-yl]pyrimidin-4-yl}piperidin-4-yl)methyl]piperazin-1-yl]methyl}piperidin-1-yl)-4-fluoro-1-oxo-2,3-dihydro-1H-isoindol-2-yl]piperidine-2,6-dione]
≥ 70% | < 10 nM | COc1c(N2CCC(CN3CCN(CC4CCN(c5cc(-c6n[nH]c7ccc(OC8(C)CC8)cc67)ncn5)CC4)C[C@H]3C)CC2)ccc2c1CN(C1CCC(=O)NC1=O)C2=O (stereo partly drawn) [Compound 285, 3-[4-methoxy-5-(4-{[(2R)-2-methyl-4-[(1-{6-[5-(1-methylcyclopropoxy)-1H-indazol-3-yl]pyrimidin-4-yl}piperidin-4-yl)methyl]piperazin-1-yl]methyl}piperidin-1-yl)-1-oxo-2,3-dihydro-1H-isoindol-2-yl]piperidine-2,6-dione]
≥ 70% | 10 to 50 nM | CC1(Oc2ccc3[nH]nc(-c4cc(N5CCN(C[C@H]6CC[C@H](OC7CCN(c8c(F)cc9c(c8F)CN(C8CCC(=O)NC8=O)C9=O)CC7)CC6)CC5)ncn4)c3c2)CC1 (some centres unmarked) [Compound 286, 3-[4,6-difluoro-1-oxo-5-(4-{[(1r,4r)-4-[(4-{6-[5-(1-methylcyclopropoxy)-1H-indazol-3-yl]pyrimidin-4-yl}piperazin-1-yl)methyl]cyclohexyl]oxy}piperidin-1-yl)-2,3-dihydro-1H-isoindol-2-yl]piperidine-2,6-dione]
50 to 70% | < 10 nM | COc1c(N2CCC(CN3C[C@@H](C)N(CC4CCN(c5cc(-c6n[nH]c7ccc(OC8(C)CC8)cc67)ncn5)CC4)[C@@H](C)C3)CC2)ccc2c1CN(C1CCC(=O)NC1=O)C2=O (stereo partly drawn) [Compound 287, 3-[5-(4-{[(3R,5S)-3,5-dimethyl-4-[(1-{6-[5-(1-methylcyclopropoxy)-1H-indazol-3-yl]pyrimidin-4-yl}piperidin-4-yl)methyl]piperazin-1-yl]methyl}piperidin-1-yl)-4-methoxy-1-oxo-2,3-dihydro-1H-isoindol-2-yl]piperidine-2,6-dione]
≥ 70% | < 10 nM | COc1c(N2CCC(CN3[C@H](C)CN(CC4CCN(c5cc(-c6n[nH]c7ccc(OC8(C)CC8)cc67)ncn5)CC4)C[C@@H]3C)CC2)ccc2c1CN(C1CCC(=O)NC1=O)C2=O (stereo partly drawn) [Compound 288, 3-[5-(4-{[(2R,6S)-2,6-dimethyl-4-[(1-{6-[5-(1-methylcyclopropoxy)-1H-indazol-3-yl]pyrimidin-4-yl}piperidin-4-yl)methyl]piperazin-1-yl]methyl}piperidin-1-yl)-4-methoxy-1-oxo-2,3-dihydro-1H-isoindol-2-yl]piperidine-2,6-dione]
≥ 70% | < 10 nM | CC1(Oc2ccc3n[nH]c(-c4cc(N5CC(OC6CCN(CC7CCN(c8ccc9c(c8F)CN(C8CCC(=O)NC8=O)C9=O)CC7)CC6)C5)ncn4)c3c2)CC1 (centres unmarked) [Compound 289, 3-{4-fluoro-5-[4-({4-[(1-{6-[5-(1-methylcyclopropoxy)-2H-indazol-3-yl]pyrimidin-4-yl}azetidin-3-yl)oxy]piperidin-1-yl}methyl)piperidin-1-yl]-1-oxo-2,3-dihydro-1H-isoindol-2-yl}piperidine-2,6-dione]
≥ 70% | < 10 nM | CC1(Oc2ccc3n[nH]c(-c4cc(N5CCC(O[C@H]6C[C@H](N7CCC(c8ccc9c(c8F)CN(C8CCC(=O)NC8=O)C9=O)CC7)C6)CC5)ncn4)c3c2)CC1 (some centres unmarked) [Compound 290, 3-(4-fluoro-1-oxo-5-{1-[(1r,3r)-3-[(1-{6-[5-(1-methylcyclopropoxy)-2H-indazol-3-yl]pyrimidin-4-yl}piperidin-4-yl)oxy]cyclobutyl]piperidin-4-yl}-2,3-dihydro-1H-isoindol-2-yl)piperidine-2,6-dione]
≥ 70% | < 10 nM | COc1c(N2CCN(C[C@@H]3CO[C@@H](CN4CCN(c5cc(-c6[nH]nc7ccc(OC8(C)CC8)cc67)ncn5)CC4)CO3)CC2)ccc2c1CN(C1CCC(=O)NC1=O)C2=O (some centres unmarked) [Compound 291, 3-[4-methoxy-5-(4-{[(2r,5s)-5-[(4-{6-[5-(1-methylcyclopropoxy)-2H-indazol-3-yl]pyrimidin-4-yl}piperazin-1-yl)methyl]-1,4-dioxan-2-yl]methyl}piperazin-1-yl)-1-oxo-2,3-dihydro-1H-isoindol-2-yl]piperidine-2,6-dione]
50 to 70% | < 10 nM | CC1(Oc2ccc3n[nH]c(-c4cc(N5CCC(CO[C@H]6C[C@H](N7CCC(c8ccc9c(c8F)CN(C8CCC(=O)NC8=O)C9=O)CC7)C6)CC5)ncn4)c3c2)CC1 (some centres unmarked) [Compound 292, 3-(4-fluoro-1-oxo-5-{1-[(1r,3r)-3-[(1-{6-[5-(1-methylcyclopropoxy)-2H-indazol-3-yl]pyrimidin-4-yl}piperidin-4-yl)methoxy]cyclobutyl]piperidin-4-yl}-2,3-dihydro-1H-isoindol-2-yl)piperidine-2,6-dione]
50 to 70% | < 10 nM | CC1(Oc2cc3c(-c4cc(N5CCC(CN6CC[C@@H](CN7CCN(c8ccc9c(c8F)CN(C8CCC(=O)NC8=O)C9=O)CC7)[C@@H](F)C6)CC5)ncn4)n[nH]c3cc2F)CC1 (some centres unmarked) [Compound 294, 3-[4-fluoro-5-(4-{[(3r,4s)-3-fluoro-1-[(1-{6-[6-fluoro-5-(1-methylcyclopropoxy)-1H-indazol-3-yl]pyrimidin-4-yl}piperidin-4-yl)methyl]piperidin-4-yl]methyl}piperazin-1-yl)-1-oxo-2,3-dihydro-1H-isoindol-2-yl]piperidine-2,6-dione]
50 to 70% | < 10 nM | CC1(Oc2ccc3[nH]nc(-c4cc(N5CC[C@H](CN6CCN(CC7CCN(c8ccc9c(c8F)CN(C8CCC(=O)NC8=O)C9=O)CC7)CC6)C5)ncn4)c3c2)CC1 (stereo partly drawn) [Compound 295, 3-(4-fluoro-5-{4-[(4-{[(3R)-1-{6-[5-(1-methylcyclopropoxy)-1H-indazol-3-yl]pyrimidin-4-yl}pyrrolidin-3-yl]methyl}piperazin-1-yl)methyl]piperidin-1-yl}-1-oxo-2,3-dihydro-1H-isoindol-2-yl)piperidine-2,6-dione]

SMILES | Dmax | DC50
COc1c(N2CCC(O[C@H]3C[C@H](CN4CCN(c5cc(-c6[nH]nc7ccc(OC8(C)CC8)cc67)ncn5)CC4)C3)CC2)ccc2c1CN(C1CCC(=O)NC1=O)C2=O (some centres unmarked) [Compound 293, 3-(4-methoxy-1-oxo-5-{4-[(1r,3r)-3-[(4-{6-[5-(1-methylcyclopropoxy)-2H-indazol-3-yl]pyrimidin-4-yl}piperazin-1-yl)methyl]cyclobutoxy]piperidin-1-yl}-2,3-dihydro-1H-isoindol-2-yl)piperidine-2,6-dione] | 50 to 70% | < 10 nM
